# Tested on: MV-4-11 cells
# Experiment: Gene expression microarray analysis (Affymetrix PrimeView) and GSEA
# Format: cell-based, human
# Parameters: RFU PODN (11730768_x_at) / Fold change /veh PODN (11730768_x_at) / RFU LINC00158 (11744669_a_at) / Fold change /veh LINC00158 (11744669_a_at) / RFU DUSP10 (11751237_a_at) / Fold change /veh DUSP10 (11751237_a_at) / RFU ID3 (11757404_x_at) / Fold change /veh ID3 (11757404_x_at) / RFU PLEKHG5 (11737974_s_at) / Fold change /veh PLEKHG5 (11737974_s_at) / RFU LRRC4B (11730491_at) / Fold change /veh LRRC4B (11730491_at) / RFU GIMAP4 (11747438_a_at) / Fold change /veh GIMAP4 (11747438_a_at) / RFU KRT8 (11758183_x_at) / Fold change /veh KRT8 (11758183_x_at) / RFU CNN1 (11734310_a_at) / Fold change /veh CNN1 (11734310_a_at) / RFU VPS37D (11726825_at) / Fold change /veh VPS37D (11726825_at) / RFU C10orf10 (11716522_x_at) / Fold change /veh C10orf10 (11716522_x_at) / RFU KIR2DL2 /// KIR2DL4 /// KIR2DL5A /// KIR2DL5B /// KIR2DS1 /// KIR2DS2 /// KIR2DS3 /// KIR2DS4 /// KIR3DL3 /// KIR3DL3 /// KIR3DS1 (11738374_at) / Fold change /veh KIR2DL2 /// KIR2DL4 /// KIR2DL5A /// KIR2DL5B /// KIR2DS1 /// KIR2DS2 /// KIR2DS3 /// KIR2DS4 /// KIR3DL3 /// KIR3DL3 /// KIR3DS1 (11738374_at) / RFU C1QL1 (11718748_at) / Fold change /veh C1QL1 (11718748_at) / RFU TMPRSS4 (11747572_a_at) / Fold change /veh TMPRSS4 (11747572_a_at) / RFU HAMP (11756126_x_at) / Fold change /veh HAMP (11756126_x_at) / RFU RNFT2 (11725882_a_at) / Fold change /veh RNFT2 (11725882_a_at) / RFU NR4A2 (11747474_a_at) / Fold change /veh NR4A2 (11747474_a_at) / RFU ABCC12 (11746883_a_at) / Fold change /veh ABCC12 (11746883_a_at) / RFU TMEM136 (11760407_x_at) / Fold change /veh TMEM136 (11760407_x_at) / RFU CLDN22 /// WWC2 (11732394_at) / Fold change /veh CLDN22 /// WWC2 (11732394_at) / RFU HLA-DPB1 (11760878_x_at) / Fold change /veh HLA-DPB1 (11760878_x_at) / RFU SPINT1 (11716480_a_at) / Fold change /veh SPINT1 (11716480_a_at) / RFU GAP43 (11754022_s_at) / Fold change /veh GAP43 (11754022_s_at) / RFU A4GNT (11735810_at) / Fold change /veh A4GNT (11735810_at) / RFU PRB3 (11715151_x_at) / Fold change /veh PRB3 (11715151_x_at) / RFU TUBB4B (11761932_at) / Fold change /veh TUBB4B (11761932_at) / RFU CAPN14 (11732068_a_at) / Fold change /veh CAPN14 (11732068_a_at) / RFU TMCC2 (11721928_a_at) / Fold change /veh TMCC2 (11721928_a_at) / RFU IRGQ (11745062_a_at) / Fold change /veh IRGQ (11745062_a_at) / RFU FAM174B (11720279_a_at) / Fold change /veh FAM174B (11720279_a_at) / RFU TMPRSS4 (11748680_a_at) / Fold change /veh TMPRSS4 (11748680_a_at) / RFU FAM212B (11763350_a_at) / Fold change /veh FAM212B (11763350_a_at) / RFU PLEKHG5 (11743358_a_at) / Fold change /veh PLEKHG5 (11743358_a_at) / RFU ZSCAN30 (11745921_a_at) / Fold change /veh ZSCAN30 (11745921_a_at) / RFU CMKLR1 (11741424_a_at) / Fold change /veh CMKLR1 (11741424_a_at) / RFU LOC101060620 /// MAPK8IP1 (11723275_at) / Fold change /veh LOC101060620 /// MAPK8IP1 (11723275_at) / RFU SPTSSB (11747773_x_at) / Fold change /veh SPTSSB (11747773_x_at) / RFU PRSS12 (11739890_at) / Fold change /veh PRSS12 (11739890_at) / RFU BIN1 (11741810_x_at) / Fold change /veh BIN1 (11741810_x_at) / RFU WNT11 (11732464_a_at) / Fold change /veh WNT11 (11732464_a_at) / RFU C10orf10 (11716521_a_at) / Fold change /veh C10orf10 (11716521_a_at) / RFU C5orf56 (11738089_at) / Fold change /veh C5orf56 (11738089_at) / RFU CYB561 (11721691_x_at) / Fold change /veh CYB561 (11721691_x_at) / RFU ANKRD19P (11752326_a_at) / Fold change /veh ANKRD19P (11752326_a_at) / RFU OR2T12 /// OR2T33 /// OR2T8 (11738714_s_at) / Fold change /veh OR2T12 /// OR2T33 /// OR2T8 (11738714_s_at) / RFU VCAN (11748164_a_at) / Fold change /veh VCAN (11748164_a_at) / RFU JSRP1 (11732532_at) / Fold change /veh JSRP1 (11732532_at) / RFU KRTAP10-11 (11738290_x_at) / Fold change /veh KRTAP10-11 (11738290_x_at) / RFU MYO3A (11730013_a_at) / Fold change /veh MYO3A (11730013_a_at) / RFU EBF3 (11725865_a_at) / Fold change /veh EBF3 (11725865_a_at) / RFU CAMK2N1 (11719241_x_at) / Fold change /veh CAMK2N1 (11719241_x_at) / RFU C5orf56 (11738088_a_at) / Fold change /veh C5orf56 (11738088_a_at) / RFU OLFML3 (11715873_a_at) / Fold change /veh OLFML3 (11715873_a_at) / RFU LOC100653217 /// NTM (11731650_a_at) / Fold change /veh LOC100653217 /// NTM (11731650_a_at) / RFU MAPK11 (11762145_a_at) / Fold change /veh MAPK11 (11762145_a_at) / RFU FIZ1 (11724087_x_at) / Fold change /veh FIZ1 (11724087_x_at) / RFU OASL (11726364_x_at) / Fold change /veh OASL (11726364_x_at) / RFU SOX15 (11748057_x_at) / Fold change /veh SOX15 (11748057_x_at) / RFU CD79A (11719716_a_at) / Fold change /veh CD79A (11719716_a_at) / RFU HIST1H1D (11736915_at) / Fold change /veh HIST1H1D (11736915_at) / RFU CASKIN2 (11723855_a_at) / Fold change /veh CASKIN2 (11723855_a_at) / RFU LOC730098 (11760151_x_at) / Fold change /veh LOC730098 (11760151_x_at) / RFU OR4N2 (11742367_at) / Fold change /veh OR4N2 (11742367_at) / RFU PRRT2 (11749266_a_at) / Fold change /veh PRRT2 (11749266_a_at) / RFU SNX32 (11753110_a_at) / Fold change /veh SNX32 (11753110_a_at) / RFU CDHR5 (11726645_a_at) / Fold change /veh CDHR5 (11726645_a_at) / RFU RCAN1 (11760418_a_at) / Fold change /veh RCAN1 (11760418_a_at) / RFU FAM167A (11723789_a_at) / Fold change /veh FAM167A (11723789_a_at) / RFU FAM26E (11764081_at) / Fold change /veh FAM26E (11764081_at) / RFU ISYNA1 (11749810_s_at) / Fold change /veh ISYNA1 (11749810_s_at) / RFU ACY1 (11761880_at) / Fold change /veh ACY1 (11761880_at) / RFU 11764098_at / Fold change /veh 11764098_at / RFU SAMD14 (11745864_x_at) / Fold change /veh SAMD14 (11745864_x_at) / RFU NPB (11741838_a_at) / Fold change /veh NPB (11741838_a_at) / RFU TMPRSS6 (11731388_a_at) / Fold change /veh TMPRSS6 (11731388_a_at) / RFU KRTAP10-2 (11738614_at) / Fold change /veh KRTAP10-2 (11738614_at) / RFU ARHGAP8 /// PRR5-ARHGAP8 (11727945_x_at) / Fold change /veh ARHGAP8 /// PRR5-ARHGAP8 (11727945_x_at) / RFU KRTAP5-7 /// NADSYN1 (11734609_at) / Fold change /veh KRTAP5-7 /// NADSYN1 (11734609_at) / RFU RASL12 (11751679_a_at) / Fold change /veh RASL12 (11751679_a_at) / RFU CDKN2B (11736163_a_at) / Fold change /veh CDKN2B (11736163_a_at) / RFU PRF1 (11729649_at) / Fold change /veh PRF1 (11729649_at) / RFU, ZNF638 /// ZNF638-IT1 / Fold change vs veh, ZNF638 /// ZNF638-IT1 / RFU, PANK3 / Fold change vs veh, PANK3 / RFU, SH3YL1 / Fold change vs veh, SH3YL1 / RFU, ZEB2 / Fold change vs veh, ZEB2 / RFU, NRIP1 / Fold change vs veh, NRIP1 / RFU, PTTG1IP / Fold change vs veh, PTTG1IP / RFU, CAPN2 / Fold change vs veh, CAPN2 / RFU, MED14 / Fold change vs veh, MED14 / RFU, SNORA58 / Fold change vs veh, SNORA58 / RFU, C1orf63 / Fold change vs veh, C1orf63 / RFU, LRRFIP1 / Fold change vs veh, LRRFIP1 / RFU, NDUFAF7 / Fold change vs veh, NDUFAF7 / RFU, SLC12A2 / Fold change vs veh, SLC12A2 / RFU, IBTK / Fold change vs veh, IBTK / RFU, ESF1 / Fold change vs veh, ESF1 / Fold change vs veh, TMEM50B / RFU, TAOK1 / Fold change vs veh, TAOK1 / RFU, ACBD3 / Fold change vs veh, ACBD3 / RFU, TMA16 / Fold change vs veh, TMA16 / RFU, RWDD3 / Fold change vs veh, RWDD3 / RFU, BCAT1 / Fold change vs veh, BCAT1 / RFU, EDEM3 / Fold change vs veh, EDEM3 / RFU, TMEM33 / Fold change vs veh, TMEM33 / RFU, WDR75 / Fold change vs veh, WDR75 / RFU, AHCTF1 / Fold change vs veh, AHCTF1 / RFU, TFRC / Fold change vs veh, TFRC / RFU, ZDHHC17 / Fold change vs veh, ZDHHC17 / RFU, NOM1 / Fold change vs veh, NOM1 / RFU, ARL8B / Fold change vs veh, ARL8B / RFU, ZBTB11 / Fold change vs veh, ZBTB11 / RFU, TAMM41 / Fold change vs veh, TAMM41 / RFU, KIAA1704 /// LOC100996395 / Fold change vs veh, KIAA1704 /// LOC100996395 / RFU, ING1 / Fold change vs veh, ING1 / RFU, TRMT61B / Fold change vs veh, TRMT61B / RFU, FUBP3 / Fold change vs veh, FUBP3 / RFU, TP53 / Fold change vs veh, TP53 / RFU, TNKS2 / Fold change vs veh, TNKS2 / RFU, ZFP14 / Fold change vs veh, ZFP14 / RFU, ACTR2 / Fold change vs veh, ACTR2 / RFU, PPP3R1 / Fold change vs veh, PPP3R1 / RFU, PIK3R1 / Fold change vs veh, PIK3R1 / RFU, HNRNPA1 / Fold change vs veh, HNRNPA1 / RFU, RNF170 / Fold change vs veh, RNF170 / RFU, ZNF28 / Fold change vs veh, ZNF28 / RFU, RNGTT / Fold change vs veh, RNGTT / RFU, OGT / Fold change vs veh, OGT / RFU, BRD1 / Fold change vs veh, BRD1 / RFU, MARS / Fold change vs veh, MARS / RFU, ZNF655 / Fold change vs veh, ZNF655 / RFU, FAHD1 / Fold change vs veh, FAHD1 / RFU, BDP1 / Fold change vs veh, BDP1 / RFU, LRRCC1 / Fold change vs veh, LRRCC1 / RFU, ARID1A / Fold change vs veh, ARID1A / RFU, ZNF146 / Fold change vs veh, ZNF146 / RFU, ZNF330 / Fold change vs veh, ZNF330 / RFU, GPN3 / Fold change vs veh, GPN3 / RFU, C9orf123 / Fold change vs veh, C9orf123 / RFU, N4BP2L2 / Fold change vs veh, N4BP2L2 / RFU, ARFIP1 / Fold change vs veh, ARFIP1 / RFU, FAM179B / Fold change vs veh, FAM179B / RFU, BCL10 / Fold change vs veh, BCL10 / RFU, UHRF1BP1L / Fold change vs veh, UHRF1BP1L / RFU, BET1 / Fold change vs veh, BET1 / RFU, CNOT2 / Fold change vs veh, CNOT2 / RFU, ZNF268 / Fold change vs veh, ZNF268 / Fold change vs veh, ZNF507 / RFU, DGCR2 / Fold change vs veh, DGCR2 / RFU, WDSUB1 / Fold change vs veh, WDSUB1 / Fold change vs veh, HSP90B1 /// MIR3652 / RFU, ADSS / Fold change vs veh, ADSS / RFU, GK / Fold change vs veh, GK / RFU, ZNF148 / Fold change vs veh, ZNF148 / RFU, TAF9 / Fold change vs veh, TAF9 / RFU, SLC1A5 / Fold change vs veh, SLC1A5 / RFU, SLMO2 / Fold change vs veh, SLMO2 / RFU, ABCC4 / Fold change vs veh, ABCC4 / RFU, LOC101060439 /// RAP1B / Fold change vs veh, LOC101060439 /// RAP1B / RFU, RFX7 / Fold change vs veh, RFX7 / RFU, GTPBP10 / Fold change vs veh, GTPBP10 / RFU, CNEP1R1 / Fold change vs veh, CNEP1R1 / RFU, BIVM-ERCC5 /// ERCC5 / Fold change vs veh, BIVM-ERCC5 /// ERCC5 / RFU, ILF3 / Fold change vs veh, ILF3 / RFU 11762660_at / Fold change /veh 11762660_at / RFU VCAN (11757783_s_at) / Fold change /veh VCAN (11757783_s_at) / RFU DDX43 (11728927_at) / Fold change /veh DDX43 (11728927_at) / RFU KRT8 (11758188_x_at) / Fold change /veh KRT8 (11758188_x_at) / RFU NKD1 (11759106_at) / Fold change /veh NKD1 (11759106_at) / RFU SRD5A1 (11742802_a_at) / Fold change /veh SRD5A1 (11742802_a_at) / RFU TPSAB1 /// TPSB2 (11721975_s_at) / Fold change /veh TPSAB1 /// TPSB2 (11721975_s_at) / RFU GSTM3 (11746129_a_at) / Fold change /veh GSTM3 (11746129_a_at) / RFU IL23R (11737362_x_at) / Fold change /veh IL23R (11737362_x_at) / RFU TMEM51 (11727254_a_at) / Fold change /veh TMEM51 (11727254_a_at) / RFU PIWIL2 (11732686_x_at) / Fold change /veh PIWIL2 (11732686_x_at) / RFU ORM1 (11744905_x_at) / Fold change /veh ORM1 (11744905_x_at) / RFU CCDC152 (11743942_at) / Fold change /veh CCDC152 (11743942_at) / RFU ECM1 (11717891_a_at) / Fold change /veh ECM1 (11717891_a_at) / RFU IL23R (11748794_a_at) / Fold change /veh IL23R (11748794_a_at) / RFU TNFAIP8L3 (11732012_x_at) / Fold change /veh TNFAIP8L3 (11732012_x_at) / RFU MBOAT4 (11741988_at) / Fold change /veh MBOAT4 (11741988_at) / RFU 11764193_at / Fold change /veh 11764193_at / RFU TMEM53 (11763286_at) / Fold change /veh TMEM53 (11763286_at) / RFU MAGEB2 (11727129_at) / Fold change /veh MAGEB2 (11727129_at) / RFU TMEM200A (11744735_a_at) / Fold change /veh TMEM200A (11744735_a_at) / RFU CCDC152 (11751479_a_at) / Fold change /veh CCDC152 (11751479_a_at) / RFU FAM211A (11726209_a_at) / Fold change /veh FAM211A (11726209_a_at) / RFU RGS16 (11746705_a_at) / Fold change /veh RGS16 (11746705_a_at) / RFU VCAN (11755009_s_at) / Fold change /veh VCAN (11755009_s_at) / RFU RHOB (11743442_s_at) / Fold change /veh RHOB (11743442_s_at) / RFU RGS16 (11720943_a_at) / Fold change /veh RGS16 (11720943_a_at) / RFU RGS16 (11720944_at) / Fold change /veh RGS16 (11720944_at) / RFU, VPS4B / Fold change vs veh, VPS4B / RFU, CREB1 / Fold change vs veh, CREB1 / RFU, DNAJC13 / Fold change vs veh, DNAJC13 / RFU, GNAQ / Fold change vs veh, GNAQ / RFU, CDK5R1 / Fold change vs veh, CDK5R1 / RFU, ZRANB3 / Fold change vs veh, ZRANB3 / RFU, CUL4A / Fold change vs veh, CUL4A / RFU, CCNY / Fold change vs veh, CCNY / RFU, UFL1 / Fold change vs veh, UFL1 / RFU, COG3 / Fold change vs veh, COG3 / RFU, DIAPH2 / Fold change vs veh, DIAPH2 / RFU, SKA2 / Fold change vs veh, SKA2 / RFU, AFF3 / Fold change vs veh, AFF3 / RFU, LMF1 / Fold change vs veh, LMF1 / RFU, IPO11 / Fold change vs veh, IPO11 / RFU, DFFB / Fold change vs veh, DFFB / RFU, FOXP1 / Fold change vs veh, FOXP1 / RFU, CARD8 / Fold change vs veh, CARD8 / RFU, STRN3 / Fold change vs veh, STRN3 / RFU, ADK / Fold change vs veh, ADK / RFU, RASSF2 / Fold change vs veh, RASSF2 / RFU, WIPF1 / Fold change vs veh, WIPF1 / RFU, LARP1B / Fold change vs veh, LARP1B / RFU, RASA1 / Fold change vs veh, RASA1 / RFU, RB1 / Fold change vs veh, RB1 / RFU, PPFIA1 / Fold change vs veh, PPFIA1 / RFU, MAT2A / Fold change vs veh, MAT2A / RFU, CCT5 / Fold change vs veh, CCT5 / RFU, WDR92 / Fold change vs veh, WDR92 / RFU, CUX1 / Fold change vs veh, CUX1 / RFU, TTC7A / Fold change vs veh, TTC7A / RFU, TMEM135 / Fold change vs veh, TMEM135 / RFU, DEPTOR / Fold change vs veh, DEPTOR / RFU, CPM / Fold change vs veh, CPM / RFU, DNAJB6 / Fold change vs veh, DNAJB6 / RFU, CACNA2D3 / Fold change vs veh, CACNA2D3 / RFU, DTX4 / Fold change vs veh, DTX4 / RFU, TFCP2 / Fold change vs veh, TFCP2 / RFU, GMCL1 /// GMCL1P1 / Fold change vs veh, GMCL1 /// GMCL1P1 / RFU, AEBP2 / Fold change vs veh, AEBP2 / RFU, SNHG1 /// SNORD22 /// SNORD25 /// SNORD26 /// SNORD27 /// SNORD28 /// SNORD29 /// SNORD31 / Fold change vs veh, SNHG1 /// SNORD22 /// SNORD25 /// SNORD26 /// SNORD27 /// SNORD28 /// SNORD29 /// SNORD31 / Fold change (Aza/veh), C12orf56 (ProbeSet 11735607_a_at) / Fold change (ACY-1035/veh), C12orf56 (ProbeSet 11735607_a_at) / Fold change (Aza/veh), FGFR1OP (ProbeSet 11751329_s_at) / Fold change (ACY-1035/veh), FGFR1OP (ProbeSet 11751329_s_at) / Fold change (Aza/veh), VPS36 (ProbeSet 11739960_a_at) / Fold change (ACY-1035/veh), VPS36 (ProbeSet 11739960_a_at) / RFU SYPL1 (11715823_x_at) / Fold change /veh SYPL1 (11715823_x_at) / RFU IGFBP7 (11715501_s_at) / Fold change /veh IGFBP7 (11715501_s_at) / RFU REEP3 (11722064_at) / Fold change /veh REEP3 (11722064_at) / RFU IGLL1 (11728026_x_at) / Fold change /veh IGLL1 (11728026_x_at): dose or concentration left out as unconfirmed
# Settings: ProbeSet 11728443_a_at; LIST B
smiles,measurement,value
Nc1ccc(-c2cccs2)cc1NC(=O)c1ccc2c(c1)cc(C1CC1)n2CCN1CCOCC1 [ACY-1035],"RFU, TAOK1",54.83 RFU
